Test results: US6489313B1, “Memory by the administration of Δ5-androstene-3β-ol-7,17-dione and 3β esters” (Humanetics Corporation, priority 1998, dated 2002)

Key:
Aged, two year old mice = test: Morris water maze procedure, aged mice; type: in vivo; conditions: two weeks after treatment, DHEA 20 mg/kg or equimolar amount, control 36 seconds
Protocol: Aged, two year old mice were tested in the Morris water maze procedure by training the mice to locate the pedestal in less than 15 seconds in three consecutive trials. Immediately upon completion of training one group of mice was treated with DHEA (20 mg/kg) and a second group treated with an eqimolar amount of Δ5-Androstene-3β-acetyl-7,17-dione. Two weeks after treatment the time to rescue was timed in the Morris water maze procedure at: Control 36 seconds, DHEA 27 seconds, and Δ5-Androstene-3β-acetyl-7,17-dione 13 seconds.

C57BL76 mice = test: Morris water maze procedure, scopolamine-induced amnesia; type: in vivo
Protocol: Groups of 13 to 16 C57BL76 mice (35 gm) were tested in the Morris. water maze procedure by training the mice to locate the pedestal in less than 15 seconds in three consecutive trials. Immediately upon completion of training the mice in each of three groups were treated with scopolamine (1 mg/kg), scopolamine+DHEA, or scopolamine+Δ5-Androstene-3β-acetyl-7,17-dione.

[1] = C57BL76 mice (35 gm), scopolamine 1 mg/kg alone or with the steroid, six days after treatment, control 12.2±1.8

Compound | time to rescue in the Morris water maze procedure (Aged, two year old mice) | average time to rescue in the Morris water maze procedure (C57BL76 mice; mouse, in vivo) | average time to rescue in the Morris water maze procedure (C57BL76 mice; [1])
C[C@]12CC[C@H](O)CC1=CC[C@@H]1[C@@H]2CC[C@]2(C)C(=O)CC[C@@H]12 [DHEA, dehydroepiandrosterone] | 27 s | 9.7 ± 1.6 s | 
CN1[C@@H]2C[C@@H](OC(=O)[C@H](CO)c3ccccc3)C[C@H]1[C@@H]1O[C@@H]12 [scopolamine] |  |  | 20.0 ± 3.6 s
CC(=O)O[C@H]1CC[C@@]2(C)C(=CC(=O)[C@@H]3[C@@H]2CC[C@]2(C)C(=O)CC[C@@H]32)C1 [Δ5-Androstene-3β-acetyl-7,17-dione] | 13 s |  | 8.3 ± 1.8 s
